According to patent US10500194B2, “Covalent small molecule DCN1 inhibitors and therapeutic methods using the same” (THE REGENTS OF THE UNIVERSITY OF MICHIGAN, priority 2017, dated 2019):

Molecular target: DCN1 (Homo sapiens (Human), UniProt Q96GG9)
Test: Competitive FP binding assay
Settings: read-out: Binding affinity to DCN1 (IC50)
Method: The Fluorescence Polarization (FP) competitive binding assays were performed to accurately determine the binding affinities of our DCN1 inhibitors. A novel FAM labeled fluorescent probe compound (46) was designed and synthesized based on one of our potent small molecule DCN1 inhibitors. Equilibrium dissociation constants (Kd) values of 46 to both DCN1 and DCN2 proteins were determined from protein saturation experiments by monitoring the total FP values of mixtures composed with the fluorescent probe at a fixed concentration and proteins with increasing concentrations up to full saturation. Serial dilutions of proteins were mixed with 46 to a final volume of 200 μl in the assay buffer (100 mM phosphate buffer, pH=6.5, with 0.02% Tween-20 and 2% DMSO). Final probe concentration was 5 nM for both assays. Plates were incubated at room temperature for 30 minutes with gentle shaking to assure equilibrium. FP values in millipolarization units (mP) were measured using the Infinite M-1000 plate reader (Tecan U.S., Research Triangle Park, N.C.) in Microfluor 1 96-well, black, round-bottom plates (Thermo Scientific, Waltham, Mass.) at an excitation wavelength of 485 nm and an emission wavelength of 530 nm. Kd values of 46 were calculated by fitting the sigmoidal dose-dependent FP increases as a function of protein concentrations using Graphpad Prism 6.0 software (Graphpad Software, San Diego, Calif.).
Human DCN1 (residues 58-259) were cloned into a pDEST17 plasmid containing an N-terminal His6 tag. DCN2 (residues 62-259), DCN3 (residues 86-304), DCN4 (residues 102-292) and DCN5 (residues 47-237) were cloned into an N-terminal His6-TEV expression vector. Pure proteins were derived from the same expression and purification protocols. Plasmids were transformed into Rosetta2 cells, the cells were grown in Terrific Broth at 37° C. to an O.D.600>1.0 and induced with 0.4 mM Isopropyl β-D-1-thiogalactopyranoside overnight at 20° C. The pelleted cells were resuspended in lysis buffer containing 25 mM Tris-HCl, pH 7.5, 200 mM NaCl and protease inhibitors, sonicated and centrifuged at 34,000×g for 45 minutes to remove debris. Cleared lysate was incubated with Ni-NTA resin (Qiagen) prewashed with lysis buffer, for 1 hr at 4° C. The matrix was loaded into a column then washed with 25 mM Tris-HCl, pH 7.5, 200 mM NaCl and 10 mM imidazole. Protein was eluted with 25 mM Tris-HCl, pH 7.5, 200 mM NaCl and 300 mM imidazole, concentrated and applied to a Superdex 75 (GE Healthcare) column pre-equilibrated with 25 mM Tris pH 7.5, 200 mM NaCl and 1 mM DTT. For DCN2-5, the N-terminal His6 tag was removed prior to gel filtration. Tag removal was achieved through incubation with TEV protease during overnight dialysis against 25 mM Tris pH 7.5, 200 mM NaCl and 1 mM DTT and a second Ni-NTA column. DCN2-5 proteins were stored at −80° C. in 1 mg/mL fractions containing 5% glycerol. The uncleaved DCN1 protein was stored at −80° C. without glycerol.

Chain of DCN1 (Q96GG9 58-259): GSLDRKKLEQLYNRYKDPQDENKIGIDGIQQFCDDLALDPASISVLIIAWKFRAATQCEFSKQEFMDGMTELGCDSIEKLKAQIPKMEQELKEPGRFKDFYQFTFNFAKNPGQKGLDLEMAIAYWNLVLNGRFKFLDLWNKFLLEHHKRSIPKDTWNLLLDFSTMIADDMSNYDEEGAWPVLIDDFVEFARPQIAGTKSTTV

SMILES	IC50 [nM]
C=CC(=O)NC[C@H](Cc1ccccc1)NC(=O)[C@H](Cc1nc2ccc(Cl)cc2s1)NC(=O)CC [Example 1, N—((S)-2-((S)-3-(6-chlorobenzo[d]thiazol-2-yl)-2-propionamidopropanamido)-3-phenylpropyl)acrylamide]	205
CCC(=O)N[C@@H](Cc1nc2ccc(Cl)cc2s1)C(=O)N[C@H](CNC(=O)/C=C/CN(C)C)Cc1ccccc1 [Example 2, (E)-N—((S)-2-((S)-3-(6-chlorobenzo[d]thiazol-2-yl)-2-propionamidopropanamido)-3-phenylpropyl)-4-(dimethylamino)but-2-enamide]	153
C=C(CN1CCOCC1)C(=O)NC[C@H](Cc1ccccc1)NC(=O)[C@H](Cc1nc2ccc(Cl)cc2s1)NC(=O)CC [Example 3, N—((S)-2-((S)-3-(6-chlorobenzo[d]thiazol-2-yl)-2-propionamidopropanamido)-3-phenylpropyl)-2-(morpholinomethyl)acrylamide]	156
C=C(CN1CCOCC1)C(=O)NC[C@H](CC1CCCCC1)NC(=O)[C@H](Cc1nc2ccc(Cl)cc2s1)NC(=O)CC [Example 5, N—((S)-2-((S)-3-(6-chlorobenzo[d]thiazol-2-yl)-2-propionamidopropanamido)-3-cyclohexylpropyl)-2-(morpholinomethyl)acrylamide]	80.7
C=C(CN1CCOCC1)C(=O)NC[C@@H](NC(=O)[C@H](Cc1nc2ccc(Cl)cc2s1)NC(=O)CC)C1CCCC1 [Example 6, N—((S)-2-((S)-3-(6-chlorobenzo[d]thiazol-2-yl)-2-propionamidopropanamido)-2-cyclopentylethyl)-2-(morpholinomethyl)acrylamide]	135
C=C(CN1CCOCC1)C(=O)NC[C@H](Cc1ccccc1)NC(=O)[C@H](Cc1nc2ccc(CC)cc2s1)NC(=O)CC [Example 8, N—((S)-2-((S)-3-(6-ethylbenzo[d]thiazol-2-yl)-2-propionamidopropanamido)-3-phenylpropyl)-2-(morpholinomethyl)acrylamide]	99.8
CCC(=O)N[C@@H](Cc1nc2ccc(Cl)cc2s1)C(=O)N[C@H](CNC(=O)C1=CCCN(C)C1)Cc1ccccc1 [Example 12, N—((S)-2-((S)-3-(6-chlorobenzo[d]thiazol-2-yl)-2-propionamidopropanamido)-3-phenylpropyl)-1-methyl-1,2,5,6-tetrahydropyridine-3-carboxamide]	292
CCC(=O)N[C@@H](Cc1nc2ccc(Cl)cc2s1)C(=O)N[C@H](CNC(=O)CCl)Cc1ccccc1 [Example 20, (S)—N—((S)-1-(2-chloroacetamido)-3-phenylpropan-2-yl)-3-(6-chlorobenzo[d]thiazol-2-yl)-2-propionamidopropanamide]	360
C=C(CN1CCCCC1)C(=O)NC[C@@H](NC(=O)[C@H](Cc1nc2ccc(C(C)C)cc2s1)NC(=O)CC)C1CCCCC1 [Example 23, N—((S)-2-cyclohexyl-2-((S)-3-(6-isopropylbenzo[d]thiazol-2-yl)-2-propionamidopropanamido)ethyl)-2-(piperidin-1-ylmethyl)acrylamide]	< 150
C=C(Cn1ccnc1)C(=O)NC[C@@H](NC(=O)[C@H](Cc1nc2ccc(C(C)C)cc2s1)NC(=O)CC)C1CCCCC1 [Example 24, 2-((1H-imidazol-1-yl)methyl)-N—((S)-2-cyclohexyl-2-((S)-3-(6-isopropylbenzo[d]thiazol-2-yl)-2-propionamidopropanamido)ethyl)acrylamide]	< 150
C=C(CN1CCC1)C(=O)NC[C@@H](NC(=O)[C@H](Cc1nc2ccc(C(C)C)cc2s1)NC(=O)CC)C1CCCCC1 [Example 25, 2-(azetidin-1-ylmethyl)-N—((S)-2-cyclohexyl-2-((S)-3-(6-isopropylbenzo[d]thiazol-2-yl)-2-propionamidopropanamido)ethyl)acrylamide]	< 150
C=C(CN1CC(F)(F)C1)C(=O)NC[C@@H](NC(=O)[C@H](Cc1nc2ccc(C(C)C)cc2s1)NC(=O)CC)C1CCCCC1 [Example 26, N—((S)-2-cyclohexyl-2-((S)-3-(6-isopropylbenzo[d]thiazol-2-yl)-2-propionamidopropanamido)ethyl)-2-((3,3-difluoroazetidin-1-yl)methyl)acrylamide]	< 150
C=C(CN1CCN(C)CC1)C(=O)NC[C@@H](NC(=O)[C@H](Cc1nc2ccc(C(C)C)cc2s1)NC(=O)CC)C1CCCCC1 [Example 27, N—((S)-2-cyclohexyl-2-((S)-3-(6-isopropylbenzo[d]thiazol-2-yl)-2-propionamidopropanamido)ethyl)-2-((4-methylpiperazin-1-yl)methyl)acrylamide]	< 150
C=C(CN1CCS(=O)(=O)CC1)C(=O)NC[C@@H](NC(=O)[C@H](Cc1nc2ccc(C(C)C)cc2s1)NC(=O)CC)C1CCCCC1 [Example 28, N—((S)-2-cyclohexyl-2-((S)-3-(6-isopropylbenzo[d]thiazol-2-yl)-2-propionamidopropanamido)ethyl)-2-((1,1-dioxidothiomorpholino)methyl)acrylamide]	< 150
C=C(CN1CCN(CCO)CC1)C(=O)NC[C@@H](NC(=O)[C@H](Cc1nc2ccc(C(C)C)cc2s1)NC(=O)CC)C1CCCCC1 [Example 29, N—((S)-2-cyclohexyl-2-((S)-3-(6-isopropylbenzo[d]thiazol-2-yl)-2-propionamidopropanamido)ethyl)-2-((4-(2-hydroxyethyl)piperazin-1-yl)methyl)acrylamide]	< 150
C=C(CN1CCC(F)(F)CC1)C(=O)NC[C@@H](NC(=O)[C@H](Cc1nc2ccc(C(C)C)cc2s1)NC(=O)CC)C1CCCCC1 [Example 30, N—((S)-2-cyclohexyl-2-((S)-3-(6-isopropylbenzo[d]thiazol-2-yl)-2-propionamidopropanamido)ethyl)-2-((4,4-difluoropiperidin-1-yl)methyl)acrylamide]	< 150
C=CC(=O)NC[C@H](Cc1ccncc1)NC(=O)[C@H](Cc1nc2ccc(C(C)C)cc2s1)NC(=O)CC [Example 31, N—((S)-2-((S)-3-(6-isopropylbenzo[d]thiazol-2-yl)-2-propionamidopropanamido)-3-(pyridin-4-yl)propyl)acrylamide]	< 150
C=CC(=O)NC[C@H](Cc1cccnc1)NC(=O)[C@H](Cc1nc2ccc(C(C)C)cc2s1)NC(=O)CC [Example 32, N—((S)-2-((S)-3-(6-isopropylbenzo[d]thiazol-2-yl)-2-propionamidopropanamido)-3-(pyridin-3-yl)propyl)acrylamide]	< 150
C=CS(=O)(=O)NC[C@H](Cc1cccnc1)NC(=O)[C@H](Cc1nc2ccc(C(C)C)cc2s1)NC(=O)CC [Example 33, (S)-3-(6-isopropylbenzo[d]thiazol-2-yl)-2-propionamido-N—((S)-1-(pyridin-3-yl)-3-(vinylsulfonamido)propan-2-yl)propanamide]	< 150
C=C(CN1CCOCC1)C(=O)NC[C@H](Cc1cccnc1)NC(=O)[C@H](Cc1nc2ccc(C(C)C)cc2s1)NC(=O)CC [Example 34, N—((S)-2-((S)-3-(6-isopropylbenzo[d]thiazol-2-yl)-2-propionamidopropanamido)-3-(pyridin-3-yl)propyl)-2-(morpholinomethyl)acrylamide]	< 150
C=C(CN1CCOCC1)C(=O)NC[C@H](Cc1ccccc1)NC(=O)[C@H](Cc1cn2cc(Cl)ccc2n1)NC(=O)CC [Example 35, N—((S)-2-((S)-3-(6-chloroimidazo[1,2-a]pyridin-2-yl)-2-propionamidopropanamido)-3-phenylpropyl)-2-(morpholinomethyl)acrylamide]	< 300
C=C(CN1CCOCC1)C(=O)NC[C@H](Cc1ccc(F)cc1)NC(=O)[C@H](Cc1nc2ccc(C(C)C)cc2s1)NC(=O)CC [Example 36, N—((S)-3-(4-fluorophenyl)-2-((S)-3-(6-isopropylbenzo[d]thiazol-2-yl)-2-propionamidopropanamido)propyl)-2-(morpholinomethyl)acrylamide]	< 150
C=CC(=O)NC[C@@H](NC(=O)[C@H](Cc1nc2ccc(C(C)C)cc2s1)NC(=O)CC)C1CCCCC1 [Example 37, N—((S)-2-cyclohexyl-2-((S)-3-(6-isopropylbenzo[d]thiazol-2-yl)-2-propionamidopropanamido)ethyl)acrylamide]	< 200
